Test results taken from US6706663B2, “Herbicidal 3-heterocyclic substituted benzisothiazole and benzisoxazole compounds” (Wyeth, priority 2000, dated 2004).

Tests used:
[1] = system: AMBEL (Ambrosia artemisifolia); assay: Postemergence herbicidal evaluation; assay type: in vivo, L.; settings: for AMBEL herbicidal rating: postemergence
In short: (§1)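 Seedlings grown about two weeks in flats, sprayed, then kept under standard greenhouse care. Rated visually 4–5 weeks after treatment on a 0–9 scale (stand, vigour, malformation, size, chlorosis, overall appearance) relative to untreated control; repeat tests averaged.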

[2] = system: CASOB (Cassia obtusifolia); assay: Postemergence herbicidal evaluation; assay type: in vivo, L.; settings: for CASOB herbicidal rating: postemergence
In short: as §1

[3] = system: CHEAL (Chenopodium album); assay: Postemergence herbicidal evaluation; assay type: in vivo, L.; settings: for CHEAL herbicidal rating: postemergence
In short: as §1

[4] = system: ECHCG (Echinochloa crus-galli); assay: Postemergence herbicidal evaluation; assay type: in vivo, (L.) Beau; settings: for ECHCG herbicidal rating: postemergence
In short: as §1

ORYSAT (Rice, Tebonnet) [5] = assay: Postemergence herbicidal evaluation; assay type: in vivo, Oryza sativa, (L.) Tebonnet; settings: for ORYSAT herbicidal rating: postemergence
In short: as §1

ZEAMX (Corn, Field) = assay: Postemergence herbicidal evaluation; assay type: in vivo, Zea mays, L.; settings: for ZEAMX herbicidal rating: postemergence
In short: as §1

[6] = system: IPOHE (Ipomoea hederacea); assay: Preemergence herbicidal evaluation; assay type: in vivo, (L.) Jacq.; settings: rated 4-5 weeks after treatment
[7] = system: GLXMAW (Soybean, Williams); assay: Preemergence herbicidal evaluation; assay type: in vivo, Glycine max, (L.) Merr. cv Williams; settings: rated 4-5 weeks after treatment
ORYSAT (Rice, Tebonnet) [8] = assay: Preemergence herbicidal evaluation; assay type: in vivo, Oryza sativa, (L.) Tebonnet; settings: rated 4-5 weeks after treatment
[9] = system: TRZAWR (Wheat, Winter, cv Riband); assay: Preemergence herbicidal evaluation; assay type: in vivo, Triticum aestivum; settings: rated 4-5 weeks after treatment
In short: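 Scores (0–9) reflect visual comparison with control plants for stand, vigor, malformation, size and chlorosis. Seeds in potting soil received a post-planting spray of compound in aqueous acetone and grew in a greenhouse until assessment 4–5 weeks later.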

[10] = system: ECHORC (Echinochloa oryzoides); assay: Flooded paddy, preemergence weed control; assay type: in vivo, Echinochloa oryzoides (Ard.) Fritsch.; settings: rated 3-4 weeks after treatment, 0-9 rating scale
In short: (§2)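 Preemergence, flooded: propagules planted at 0.5 cm depth in silt loam, water level maintained at 1.5 to 3 cm over soil, containers kept on greenhouse benches. Activity scored 0-9 by eye relative to a control plant.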

CYPIR (Cyperus iria) [11] = assay: Flooded paddy, preemergence weed control; assay type: in vivo; settings: rate 0.1250 kg/ha, rated 3-4 weeks after treatment, 0-9 rating scale
In short: as §2

[12] = system: SAGPY (Sagittaria pygmaea); assay: Flooded paddy, preemergence weed control; assay type: in vivo, L.; settings: rate 0.0080 kg/ha, rated 3-4 weeks after treatment, 0-9 rating scale
In short: as §2

[13] = system: ECHORC (Echinochloa oryzoides); assay: Flooded paddy, postemergence weed control; assay type: in vivo, Echinochloa oryzoides (Ard.) Fritsch.; settings: postemergence weeds, rated 3-4 weeks after treatment
Text: (§3) Results of herbicide evaluation are expressed on a rating scale (0-9). The scale is based upon a visual observation of plant stand, vigor, malformation, size, chlorosis and overall plant appearance as compared with a control.
(§4) Plastic containers containing weeds which are 3 to 5 cm tall and rice seedlings at the 1.5 to 2.5 leaf stage are flooded with water. The water is maintained at 1.5 to 3 cm above the soil surface for the duration of the experiment. Test compounds are applied as aqueous/acetone mixtures 50/50 v/v directly into the flood water to provide the equivalent of about 0.0320 to 0.2500 kg/ha of active ingredient. The treated containers are placed on greenhouse benches and cared for in accordance with conventional greenhouse procedures. Three to four weeks after treatment, the test is terminated and each container is examined and herbicidal effect rated according to the rating system provided in Example 87. The compounds evaluated are identified in Example 87 and plant species used are identified in Example 89.

CYPIR (Cyperus iria) [14] = assay: Flooded paddy, postemergence weed control; assay type: in vivo; settings: postemergence weeds, rated 3-4 weeks after treatment
Text: as §3, §4

[15] = system: CYPSE (Cyperus serotinus); assay: Flooded paddy, postemergence weed control; assay type: in vivo, Rottb.; settings: postemergence weeds, rated 3-4 weeks after treatment
Text: as §3, §4

[16] = system: MOOVA (Monochoria vaginalis); assay: Flooded paddy, postemergence weed control; assay type: in vivo, Presl.; settings: postemergence weeds, rated 3-4 weeks after treatment
Text: as §3, §4

[17] = system: SAGPY (Sagittaria pygmaea); assay: Flooded paddy, postemergence weed control; assay type: in vivo, L.; settings: postemergence weeds, rated 3-4 weeks after treatment
Text: as §3, §4

ORYSAT (Rice, Tebonnet) [18] = assay: Flooded paddy, post-transplant and postemergence rice tolerance; assay type: in vivo, Oryza sativa, (L.) Tebonnet; settings: post-transplant rice, rated 3-4 weeks after treatment
Text: as §3, §4

## 1-methyl-3-[3-(1,3-oxathian-2-yl)-1,2-benzisothiazol-5-yl]-6-(trifluoromethyl)uracil S′,S′-dioxide [Compound 35]
[1]; rate 0.0320 kg/ha
  AMBEL herbicidal rating: 4.0
  Postemergence herbicidal rating, AMBEL: 9.0
[1]; rate 0.0620 kg/ha
  AMBEL herbicidal rating: 9.0
  Postemergence herbicidal rating, AMBEL: 9.0
[2]; rate 0.0320 kg/ha
  CASOB herbicidal rating: 4.0
  Postemergence herbicidal rating, CASOB: 9.0
[2]; rate 0.0620 kg/ha
  CASOB herbicidal rating: 4.0
  Postemergence herbicidal rating, CASOB: 9.0
[3]; rate 0.0320 kg/ha
  CHEAL herbicidal rating: 7.0
  Postemergence herbicidal rating, CHEAL: 9.0
[3]; rate 0.0620 kg/ha
  CHEAL herbicidal rating: 9.0
  Postemergence herbicidal rating, CHEAL: 9.0
[4]; rate 0.0320 kg/ha
  ECHCG herbicidal rating: 2.0
  Postemergence herbicidal rating, ECHCG: 3.0
[4]; rate 0.0620 kg/ha
  ECHCG herbicidal rating: 3.0
  Postemergence herbicidal rating, ECHCG: 4.0
ORYSAT (Rice, Tebonnet) [5]; rate 0.0320 kg/ha
  ORYSAT herbicidal rating: 1.5
  Postemergence herbicidal rating, ORYSAT: 6.5
ORYSAT (Rice, Tebonnet) [5]; rate 0.0620 kg/ha
  ORYSAT herbicidal rating: 2.5
  Postemergence herbicidal rating, ORYSAT: 6.5
ZEAMX (Corn, Field); rate 0.0320 kg/ha
  ZEAMX herbicidal rating: 3.0
  Postemergence herbicidal rating, ZEAMX: 7.5
ZEAMX (Corn, Field); rate 0.0620 kg/ha
  ZEAMX herbicidal rating: 3.0
  Postemergence herbicidal rating, ZEAMX: 7.5
[6]; Rate 0.0620 kg/ha
  IPOHE preemergence herbicidal rating: 9.0
  Preemergence herbicidal rating IPOHE: 0.5
[6]; Rate 0.1250 kg/ha
  IPOHE preemergence herbicidal rating: 9.0
  Preemergence herbicidal rating IPOHE: 3.0
[6]; Rate 0.2500 kg/ha
  IPOHE preemergence herbicidal rating: 9.0
  Preemergence herbicidal rating IPOHE: 7.0
[7]; Rate 0.0620 kg/ha
  GLXMAW preemergence herbicidal rating: 8.0
  Preemergence herbicidal rating GLXMAW: 0.0
[7]; Rate 0.1250 kg/ha
  GLXMAW preemergence herbicidal rating: 9.0
  Preemergence herbicidal rating GLXMAW: 0.5
[7]; Rate 0.2500 kg/ha
  GLXMAW preemergence herbicidal rating: 9.0
  Preemergence herbicidal rating GLXMAW: 2.0
ORYSAT (Rice, Tebonnet) [8]; Rate 0.0620 kg/ha
  ORYSAT preemergence herbicidal rating: 5.5
  Preemergence herbicidal rating ORYSAT: 0.0
ORYSAT (Rice, Tebonnet) [8]; Rate 0.1250 kg/ha
  ORYSAT preemergence herbicidal rating: 9.0
  Preemergence herbicidal rating ORYSAT: 0.0
ORYSAT (Rice, Tebonnet) [8]; Rate 0.2500 kg/ha
  ORYSAT preemergence herbicidal rating: 9.0
  Preemergence herbicidal rating ORYSAT: 0.0
[9]; Rate 0.0620 kg/ha
  TRZAWR preemergence herbicidal rating: 7.0
  Preemergence herbicidal rating TRZAWR: 0.0
[9]; Rate 0.1250 kg/ha
  TRZAWR preemergence herbicidal rating: 9.0
  Preemergence herbicidal rating TRZAWR: 0.0
[9]; Rate 0.2500 kg/ha
  TRZAWR preemergence herbicidal rating: 9.0
  Preemergence herbicidal rating TRZAWR: 0.0
[10]; rate 0.0080 kg/ha
  herbicidal rating, ECHORC: 0.0
[10]; rate 0.0080 kg/ha, listed as 82
  herbicidal rating, ECHORC: 7.0
[10]; rate 0.0320 kg/ha
  herbicidal rating, ECHORC: 5.5
[10]; rate 0.0320 kg/ha, listed as 82
  herbicidal rating, ECHORC: 9.0
[10]; rate 0.1250 kg/ha
  herbicidal rating, ECHORC: 7.5
[10]; rate 0.1250 kg/ha, listed as 82
  herbicidal rating, ECHORC: 9.0
CYPIR (Cyperus iria) [11]
  herbicidal rating, CYPIR: 9.0
[12]
  herbicidal rating, SAGPY: 0.0
[13]; 0.0620 kg/ha into flood water
  herbicide rating (0-9) ECHORC: 4.0
[13]; 0.1250 kg/ha into flood water
  herbicide rating (0-9) ECHORC: 4.0
[13]; 0.2500 kg/ha into flood water
  herbicide rating (0-9) ECHORC: 9.0
CYPIR (Cyperus iria) [14]; 0.0620 kg/ha into flood water
  herbicide rating (0-9) CYPIR: 9.0
CYPIR (Cyperus iria) [14]; 0.1250 kg/ha into flood water
  herbicide rating (0-9) CYPIR: 9.0
CYPIR (Cyperus iria) [14]; 0.2500 kg/ha into flood water
  herbicide rating (0-9) CYPIR: 9.0
[15]; 0.0620 kg/ha into flood water
  herbicide rating (0-9) CYPSE: 0.0
[15]; 0.1250 kg/ha into flood water
  herbicide rating (0-9) CYPSE: 0.0
[15]; 0.2500 kg/ha into flood water
  herbicide rating (0-9) CYPSE: 9.0
[16]; 0.0620 kg/ha into flood water
  herbicide rating (0-9) MOOVA: 9.0
[16]; 0.1250 kg/ha into flood water
  herbicide rating (0-9) MOOVA: 9.0
[16]; 0.2500 kg/ha into flood water
  herbicide rating (0-9) MOOVA: 9.0
[17]; 0.0620 kg/ha into flood water
  herbicide rating (0-9) SAGPY: 0.0
[17]; 0.1250 kg/ha into flood water
  herbicide rating (0-9) SAGPY: 0.0
[17]; 0.2500 kg/ha into flood water
  herbicide rating (0-9) SAGPY: 0.0
ORYSAT (Rice, Tebonnet) [18]; 0.0620 kg/ha into flood water
  herbicide rating (0-9) ORYSAT (rice tolerance): 3.0
ORYSAT (Rice, Tebonnet) [18]; 0.1250 kg/ha into flood water
  herbicide rating (0-9) ORYSAT (rice tolerance): 4.0
ORYSAT (Rice, Tebonnet) [18]; 0.2500 kg/ha into flood water
  herbicide rating (0-9) ORYSAT (rice tolerance): 5.0
